From patent publication US10544141B2, “Derivatives and methods of treating hepatitis B infections” (Novira Therapeutics, Inc., priority 2014, dated 2020)
pEC50: −log10 of the molar value.

Test system: HBV
Assay: HBV replication inhibition assay (BDNA assay) in HepG2.2.15 cells
Format: cell-based
Settings: Hepatitis B virus, HepG2.2.15, 144 h, 6 days treatment, encapsidated HBV DNA in supernatant by branched DNA QuantiGene assay
Description: HBV replication inhibition by the compounds of this invention could be determined in cells infected or transfected with HBV, or cells with stably integrated HBV, such as HepG2.2.15 cells (Sells et al. 1987). In this example, HepG2.2.15 cells were maintained in cell culture medium containing 10% fetal bovine serum (FBS), Geneticin, L-glutamine, penicillin and streptomycin. HepG2.2.15 cells could be seeded in 96-well plates at a density of 40,000 cells/well and be treated with serially diluted compounds at a final DMSO concentration of 0.5% either alone or in combination by adding drugs in a checker box format. Cells were incubated with compounds for three days, after which medium was removed and fresh medium containing compounds was added to cells and incubated for another three days. At day 6, supernatant was removed and treated with DNase at 37° C. for 60 minutes, followed by enzyme inactivation at 75° C. for 15 minutes. Encapsidated HBV DNA was released from the virions and covalently linked HBV polymerase by incubating in lysis buffer (Affymetrix QS0010) containing 2.5 μg proteinase K at 50° C. for 40 minutes. HBV DNA was denatured by addition of 0.2 M NaOH and detected using a branched DNA (BDNA) QuantiGene assay kit according to manufacturer recommendation (Affymetrix). HBV DNA levels could also be quantified using qPCR, based on amplification of encapsidated HBV DNA extraction with QuickExtraction Solution (Epicentre Biotechnologies) and amplification of HBV DNA using HBV specific PCR probes that can hybridize to HBV DNA and a fluorescently labeled probe for quantitation. In addition, cell viability of HepG2.2.15 cells incubated with test compounds alone or in combination was determined by using CellTitre-Glo reagent according to the manufacturer protocol (Promega). The mean background signal from wells containing only culture medium was subtracted from all other samples, and percent inhibition at each compound concentration was calculated by normalizing to signals from HepG2.2.15 cells treated with 0.5% DMSO using equation E1. % inhibition=(DMSOave−Xi)/DMSOave×100% E1: where DMSOave is the mean signal calculated from the wells that were treated with DMSO control (0% inhibition control) and Xi is the signal measured from the individual wells. EC50 values, effective concentrations that achieved 50% inhibitory effect, were determined by non-linear fitting using Graphpad Prism software (San Diego, Calif.) and equation E2 Y=Y min+(Y max−Y min)/(1+10(Log EC50−X)×HillSlope) E2: […]
where Y represents percent inhibition values and X represents the logarithm of compound concentrations.
Selected compounds of the invention were assayed in the HBV replication assay (BDNA assay), as described above and a representative group of these active compounds is shown in Table 3. […] In Table 3, “A” represents 0.01<EC50<0.10; “B” represents 0.10≤EC50<0.50; and “C” represents 0.50≤EC50<1.0; (‘+’ indicates >50% activity at 10 μM).

Row | SMILES | pEC50
1 | CCCc1n[nH]c2c1CN(C(=O)Nc1cccc(Cl)c1)CC2 [Compound 644, N-(3-chlorophenyl)-3-propyl-1,4,6,7-tetrahydropyrazolo[4,3-c]pyridine-5-carboxamide] | 6.30 to 7.00
2 | O=C(Nc1ccnc(Cl)c1F)N1CCc2[nH]nc(C3CCC3)c2C1 [Compound 660] | 6.30 to 7.00
3 | Cc1cccc(NC(=O)N2CCc3[nH]nc(C4CCC4)c3C2)c1 [Compound 661] | 6.30 to 7.00
4 | O=C(Nc1cccc(Br)c1F)N1CCc2[nH]nc(C3CCC3)c2C1 [Compound 662] | 7.00 to 8.00
5 | O=C(Nc1cccc(Br)c1)N1CCc2[nH]nc(C3CCC3)c2C1 [Compound 663] | 7.00 to 8.00
6 | O=C(Nc1ccnc(Br)c1F)N1CCc2[nH]nc(C3CCC3)c2C1 [Compound 664] | 6.30 to 7.00
7 | O=C(Nc1ccc(F)c(Cl)c1)N1CCc2[nH]nc(C3CCC3)c2C1 [Compound 665] | 7.00 to 8.00
8 | Cc1cc(NC(=O)N2CCc3[nH]nc(C4CCC4)c3C2)ccc1F [Compound 666] | 7.00 to 8.00
9 | O=C(Nc1ccc(F)c(Br)c1)N1CCc2[nH]nc(C3CCC3)c2C1 [Compound 667] | 7.00 to 8.00
10 | N#Cc1cc(NC(=O)N2CCc3[nH]nc(C4CCC4)c3C2)ccc1F [Compound 668] | 7.00 to 8.00
11 | O=C(Nc1ccc(F)c(F)c1)N1CCc2[nH]nc(C3CCC3)c2C1 [Compound 669] | 6.30 to 7.00
12 | O=C(Nc1cccc(Cl)c1)N1CCc2[nH]nc(C3CC=CC3)c2C1 [Compound 693, N-(3-chlorophenyl)-3-cyclopent-3-en-1-yl-1,4,6,7-tetrahydropyrazolo[4,3-c]pyridine-5-carboxamide] | 7.00 to 8.00
13 | CC1(c2n[nH]c3c2CN(C(=O)Nc2cccc(Cl)c2)CC3)CCC1 [Compound 694, N-(3-chlorophenyl)-3-(1-methylcyclobutyl)-1,4,6,7-tetrahydropyrazolo[4,3-c]pyridine-5-carboxamide] | 7.00 to 8.00
14 | CCC(F)(F)c1n[nH]c2c1CN(C(=O)Nc1cccc(Cl)c1)CC2 [Compound 696, N-(3-chlorophenyl)-3-(1,1-difluoropropyl)-1,4,6,7-tetra hydropyrazolo[4,3-c]pyridine-5-carboxamide] | 6.30 to 7.00
15 | O=C(Nc1cccc(Cl)c1)N1CCc2[nH]nc(C3(C(F)(F)F)CC3)c2C1 [Compound 700, N-(3-chlorophenyl)-3-[1-(trifluoromethyl)cyclopropyl]-1,4,6,7-tetrahydropyrazolo[4,3-c]pyridine-5-carboxamide] | 6.30 to 7.00
16 | O=C(Nc1cccc(Cl)c1)N1CCc2[nH]nc(C3CCC(O)C3)c2C1 (centres unmarked) [Compound 742, N-(3-chlorophenyl)-3-(3-hydroxycyclopentyl)-1,4,6,7-tetrahydropyrazolo[4,3-c] pyridine-5-carboxamide] | 6.30 to 7.00
17 | O=C(Nc1cccc(Cl)c1)N1CCc2[nH]nc(C3=CC(F)CC3)c2C1 (centres unmarked) [Compound 744, N-(3-chlorophenyl)-3-(3-fluorocyclopenten-1-yl)-1,4,6,7-tetrahydropyrazolo[4,3-c]pyridine-5-carboxamide] | 7.00 to 8.00
18 | O=C(Nc1ccnc(Cl)c1F)N1CCc2[nH]nc(C34CCCC3C4)c2C1 (centres unmarked) [Compound 782] | 7.00 to 8.00
19 | Cc1cccc(NC(=O)N2CCc3[nH]nc(C45CCCC4C5)c3C2)c1 (centres unmarked) [Compound 783] | 7.00 to 8.00
20 | O=C(Nc1cccc(Br)c1F)N1CCc2[nH]nc(C34CCCC3C4)c2C1 (centres unmarked) [Compound 784] | 7.00 to 8.00
21 | O=C(Nc1cccc(Br)c1)N1CCc2[nH]nc(C34CCCC3C4)c2C1 (centres unmarked) [Compound 785] | 7.00 to 8.00
22 | N#Cc1cccc(NC(=O)N2CCc3[nH]nc(C45CCCC4C5)c3C2)c1F (centres unmarked) [Compound 786] | 7.00 to 8.00
23 | O=C(Nc1ccc(F)c(Cl)c1)N1CCc2[nH]nc(C34CCCC3C4)c2C1 (centres unmarked) [Compound 787] | 7.00 to 8.00
24 | Cc1cc(NC(=O)N2CCc3[nH]nc(C45CCCC4C5)c3C2)ccc1F (centres unmarked) [Compound 788] | 7.00 to 8.00
25 | O=C(Nc1ccc(F)c(Br)c1)N1CCc2[nH]nc(C34CCCC3C4)c2C1 (centres unmarked) [Compound 789] | 7.00 to 8.00
26 | N#Cc1cc(NC(=O)N2CCc3[nH]nc(C45CCCC4C5)c3C2)ccc1F (centres unmarked) [Compound 790] | 7.00 to 8.00
27 | O=C(Nc1ccnc(Br)c1F)N1CCc2[nH]nc(C34CCCC3C4)c2C1 (centres unmarked) [Compound 791] | 7.00 to 8.00
28 | O=C(Nc1ccc(F)c(F)c1)N1CCc2[nH]nc(C34CCCC3C4)c2C1 (centres unmarked) [Compound 792] | 6.30 to 7.00
29 | O=C(Nc1cccc(Cl)c1)N1CCc2[nH]nc(C3CCCO3)c2C1 (centres unmarked) [Compound 861, N-(3-chlorophenyl)-3-tetrahydrofuran-2-yl-1,4,6,7-tetrahydropyrazolo[4,3-c]pyridine-5-carboxamide] | 7.00 to 8.00
